The test system of assay [1] is γδT cells. The assay can be described thus: Proliferation of γδT cells from peripheral blood monocytes with compound 7, IL-7 and IL-15. The settings on record: for ratio of the γδT cells: Day 11. Type of assay: cell-based, human. Here is the method: The monocytes were prepared from peripheral blood of two healthy subjects by Ficoll. Personal agreement for the blood collection was achieved based on the research ethics code of the medical school of Mie University. The monocytes adjusted to 1.5×10^6 cells/mL with the culture solution of Yssel containing 10% human AB serum were cultured for one day in the presence of tetrakispivaloyloxymethyl 2-(thiazole-2-ylamino) ethylidene-1,1-bisphosphonate (compound 7, 1 μM), and then added with 25 ng/mL of IL-7 (Miltenyi Biotec, catalog number: 170-076-111) and 25 ng/mL of IL-15 (Miltenyi Biotec, catalog number: 170-076-114), and further cultured for 10 days. The frequency of the γδT cells in the monocyte population were analyzed by flow cytometry (FACSCANTO II, Becton Dickinson). As a result, the ratio of the γδT cells at the start of culture (Day 0) was 2.7% for donor 1 (HD1) and 1.7% for donor 2 (HD2), respectively. […] Peripheral blood of healthy human normally contains 1 to 3% of the γδT cells. However, approximately 1×10^8 of γδT cell populations could be prepared in high-purity from 1.5 mL of peripheral blood.
A culture solution of Yssel containing 10% human AB serum was used as the culture solution. As a result, rapid cell proliferation was observed from about Day 8 after the culture. The number of cells on Day 13 was 3×10^8, which was about 5000 times (FIG. 1B).
As comparison, IL-7 and IL-15 in the culture solution were replaced by IL-2 (PROLEUKIN, Chiron Therapeutics), and monocytes were cultured.

Assay [2] has as its system γδT cells. Nature of the assay: Comparison of compound 7 with zoledronate: proliferation and purity of γδT cells (IL-2 culture). Type of assay: cell-based, human. To be noted: for effect on cell proliferation: Day 8, IL-2 300 U/mL. As to the method:
Peripheral blood monocytes were collected from healthy subjects (n=8, HD1 to HD8) in two experiments (n=4 in each experiment). On Day 0, 1.5×10^6 of the collected peripheral blood monocytes were added to each well of 24-well plate. […] Then, on Day 1, IL-2 (300 U/mL) was added. The IL-2 is a cytokine used for the proliferation of the γδT cells according to the reports (non-patent documents 5 and 6). On Day 6, the cells of one well were diluted 2-fold into two wells. The number of cells was counted. On Day 7, the cells of two wells were diluted 2-fold into four wells, and IL-2 (300 U/mL) was further added. On Day 8, half-volume (about 3 mL) of the cells were diluted 6-fold to 18 mL, and cultured in a T75 flask. On Day 8 and Day 11, the number of cells was counted and cell purity was measured by flow cytometry analysis.

Where [3] appears, read: compound 7 1 μM, IL-7 and IL-15 25 ng/mL.
[4] abbreviates: compound 7 1 μM vs zoledronate 5 μM.

Consider `CC(C)(C)C(=O)OCOP(=O)(OCOC(=O)C(C)(C)C)C(CNc1nccs1)P(=O)(OCOC(=O)C(C)(C)C)OCOC(=O)C(C)(C)C` [compound 7, tetrakispivaloyloxymethyl 2-(thiazole-2-ylamino)ethylidene-1,1-bisphosphonate], for which the “start of rapid cell proliferation” value with γδT cells [1] (setting [3]) is about 8 days. Besides, in the assay on γδT cells [1] (setting [3]), the “γδT cell populations prepared in high-purity from 1.5 mL of peripheral blood” value is “approximately 1×10^8”. The “ratio of the γδT cells” value with γδT cells [1] (donor 1 (HD1), compound 7 1 μM, IL-7 and IL-15 25 ng/mL, 2.7% at Day 0) is listed as 97.1%; in the assay on γδT cells [1] (donor 2 (HD2), compound 7 1 μM, IL-7 and IL-15 25 ng/mL, 1.7% at Day 0) it was 94.5%. In the assay on γδT cells [1] (from 3×10^6 monocytes (3 mL peripheral blood), compound 7 1 μM, IL-7 and IL-15 25 ng/mL), the “number of cells on Day 13” value was 3×10^8. Besides, the “fold increase of cells on Day 13” value in the assay with γδT cells [1] (from 3×10^6 monocytes, compound 7 1 μM, IL-7 and IL-15 25 ng/mL) is reported as “about 5000 times”. For the same molecule, in the assay on γδT cells [2] (setting [4]), the “effect on cell proliferation” value is “almost no difference”. The “frequency of the γδT cells in lymphocyte fraction (P1) (Vd2/P1)” value in the assay with γδT cells [2] (Day 8 and Day 11, compared to the zoledronate treatment group, t test) is recorded as “significantly higher”. Also, the “cell proliferation-stimulating effect compared to zoledronate” value with γδT cells [2] (Day 11, Experiment 1, subjects HD1 to HD4, compound 7 1 μM vs zoledronate 5 μM) was “strongly recognized”; in the assay on γδT cells [2] (Day 11, Experiment 2, subject) it was “the same level”; in the assay on γδT cells [2] (Day 11, Experiment 2, subject HD8), “weak”; in the assay on γδT cells [2] (Day 11, Experiment 2, subjects HD6 and HD7) it was “greater”. For the same molecule, the “proliferation of γδT cells compared to zoledronate, average” value with γδT cells [2] (Day 11, Experiments 1 and 2, n=8, p=0.008, t test) is “significantly excellent”. The “frequency of the γδT cells in CD3 positive cells (Vd2/CD3)” value with γδT cells [2] (compared to the zoledronate treatment group, t test) is reported as “significantly higher”.
Consider `O=P(O)(O)C(O)(Cn1ccnc1)P(=O)(O)O` [zoledronate, reference compound], for which the “effect on cell proliferation” value in the assay on γδT cells [2] (setting [4]) is on record as “almost no difference”.
As to “IL-2: interleukin-2 (PROLEUKIN, Chiron Therapeutics), cytokine used for proliferation of γδT cells”, the “effect of promoting cell proliferation by IL-7 and IL-15 on further addition of IL-2” value with γδT cells [1] (monocytes stimulated with compound 7) is on record as “not further increased”.
